Active and inactive are the calls of the source. The calls are words filed in the database; no cut-off is given here.
How the values were obtained:
[1] = Inhibition of LPS + nigericin-induced IL-1beta secretion in PMA-differentiated human THP-1 cells at 20 uM incubated for 24 hrs by ELISA; format: functional
HEK293 = experiment: Inhibition of NEK7-NLRP3 interaction (unknown origin) expressed in HEK293 cells at 10 uM incubated for 24 hrs by Co-IP assay; format: cell-based; details: Homo sapiens

COc1cc2c(cc1OC)-c1cc3ccc(OC)c(OCCCCCNC(=O)CCCC[C@@H]4SC[C@@H]5NC(=O)N[C@@H]54)c3c[n+]1CC2 showed an inhibition at 20 µM [1] of 77%.
COc1cc2c(cc1OC)-c1cc3ccc(OC)c(OCCOCCNC(=O)CCCC[C@@H]4SC[C@@H]5NC(=O)N[C@@H]54)c3c[n+]1CC2 gave an inhibition at 20 µM [1] of 65%.
For COc1ccc2cc3[n+](cc2c1OCCOCCNC(=O)CCCC[C@@H]1SC[C@@H]2NC(=O)N[C@@H]21)CCc1cc2c(cc1-3)OCO2, the inhibition at 20 µM [1] was 10%.
COc1cc2c(cc1OCCOCCOCCNC(=O)CCCC[C@@H]1SC[C@@H]3NC(=O)N[C@@H]31)CC[n+]1cc3c(OC)c(OC)ccc3cc1-2 showed an inhibition at 20 µM [1] of -79%.
For C#CCOCCOc1cc(C2(C(F)(F)F)N=N2)ccc1C(=O)NCCOCCOCCOc1ccc2cc3[n+](cc2c1OC)CCc1cc2c(cc1-3)OCO2, the inhibition at 20 µM [1] was 80%.
COc1ccc2cc3[n+](cc2c1OCCCCCNC(=O)CCCC[C@@H]1SC[C@@H]2NC(=O)N[C@@H]21)CCc1cc2c(cc1-3)OCO2 gave an inhibition at 20 µM [1] of -2%.
In the case of COc1cc2c(cc1OC)-c1cc3ccc(OC)c(OCCCNC(=O)CCCC[C@@H]4SC[C@@H]5NC(=O)N[C@@H]54)c3c[n+]1CC2, the inhibition at 20 µM [1] is reported as 80%.
COc1c(OCCCCCNC(=O)CCCC[C@@H]2SC[C@@H]3NC(=O)N[C@@H]32)ccc2cc3[n+](cc12)CCc1cc2c(cc1-3)OCO2 showed an inhibition at 20 µM [1] of 73%.
With COc1cc2c(cc1OC)-c1cc3ccc(OC)c(OC)c3c[n+]1CC2 the inhibition (HEK293) was “inactive”.

From ChEMBL document CHEMBL4765493, “Berberine Directly Targets the NEK7 Protein to Block the NEK7-NLRP3 Interaction and Exert Anti-inflammatory Activity” (J Med Chem, 2021)
